Experimental data: patent US20110178396A1, “Nicotinamide Derivatives” (CRC FOR BIOMEDICAL IMAGING DEVELOPMENT LTD., priority 2008, published 2011)
Values belong to the compound of their own block, whether it stands above or below them.

How the values were obtained:
[1] = tested on: B16F0 melanoma tumour; assay: Biodistribution in B16 melanoma bearing mice; assay type: in vivo, C57BL/6J mice; details: C57BL/6J mice; for Organ distribution Intestine / Organ distribution Liver / Organ distribution Spleen / Organ distribution Stomach / Organ distribution Thyroid / Organ distribution Tumour: B16F0 tumour, mean ± S.D.; for Organ distribution Intestine / Organ distribution Liver / Organ distribution Spleen / Organ distribution Stomach / Organ distribution Thyroid / Organ distribution Tumour / Uptake Lung / uptake BLOOD / uptake BRAIN / uptake HEART / uptake KIDNEY / uptake LIVER / uptake TUMOUR: n = 5; for tumour standardized uptake value (SUVt) / Uptake Lung / uptake BLOOD / uptake BRAIN / uptake HEART / uptake KIDNEY / uptake LIVER / uptake TUMOUR: B16 tumour; for Uptake Lung / uptake BLOOD / uptake BRAIN / uptake HEART / uptake KIDNEY / uptake LIVER / uptake TUMOUR: mean ± SD
Procedure: Animal experiments were performed in compliance with the NHMRC Australian Code of Practice for the care and use of animals for scientific purposes. Female C57BL/6J black and BALB/c nude albino mice of 5 weeks age were obtained from the Animal Resources Centre, Western Australia. B16F0 murine melanoma cells were originally obtained from European Collection of Cell Cultures (UK) and A375 human amelanotic melanoma cells were originally obtained from American Type Culture Collection (USA). Before transplantation, B16F0 and A375 melanoma cells were maintained as a monolayer in RPMI culture medium supplemented with 10% foetal calf serum and antibiotics and passaged with trypsinisation. Early passages were frozen and stored in liquid nitrogen. Cells were passaged to P=10 and then discarded. Frozen aliquots were grown in a monolayer culture to between 80-95% confluence and for transplantation were trypsinised and washed with Ca^2+ and Mg^2+ free phosphate buffered saline (PBS). For inoculation, B16F0 melanoma cells were resuspended in Ca^2+ and Mg^2+ free PBS at 3 or 5×10^6 viable cells per ml and 0.1 ml was subcutaneously injected at the left flank of 6-7 weeks old C57BL/6J mice. Eleven days later, tumours could be palpated in >98% of inoculated animals. A375 human melanoma cells were resuspended at 1×10^7 viablecells per ml and 0.1 ml was injected subcutaneously at the left flank of 6 weeks old BALB/c nude mice and 25-26 days later tumours could be palpated with ˜60% of inoculated animals developing tumours.
Eleven days (B16F0 melanoma) and 25 days (A375 human melanoma) after tumour transplantation, the [^18F]nicotinamides (0.5-1.5 MBq, 100 μl) and [^123I]nicotinamide (0.37-0.74 MBq, 100 μl) derivatives were injected intravenously via the tail vein into mice (15-18 g). Time points of 1, 3, 6, 24, 48, 72 h after injection were chosen for determining the distribution of each compound in various organs and tissues for the iodine-123 labelled compounds and between 15 min and 6 hours (e.g. 15 min, 30 min, 1 h, 2 h, 4 h or 6 h) were chosen for the ^18F-labelled compounds. At defined times post injection, groups of mice (n=5) were weighed, sacrificed by CO2 administration followed by cervical dislocation and dissected. Selected organs were weighed and their radioactivity measured with a γ-counter. The remaining activity in the carcass was also determined in order to obtain the total activity in the mouse at defined time points. The fraction of injected activity (% ID) in the organ was calculated by comparison with suitable dilutions of the injected dose. Then, the radioactivity concentration in the organ (% ID/g) was found by dividing the % ID for each organ by the weight of the organ.

[2] = tested on: melanoma tumour; details: melanoma tumour bearing mice, cited from earlier work

Organ distribution Intestine ([1]; 1 h): 10 ± 1 % ID/organ
Organ distribution Liver ([1]; 1 h): 2.7 ± 0.7 % ID/organ
Organ distribution Spleen ([1]; 1 h): 0.31 ± 0.07 % ID/organ
Organ distribution Stomach ([1]; 1 h): 9 ± 1 % ID/organ
Organ distribution Thyroid ([1]; 1 h): 1.2 ± 0.7 % ID/organ
Organ distribution Tumour ([1]; 1 h): 1.8 ± 0.4 % ID/organ
Organ distribution Intestine ([1]; 6 h): 5 ± 1 % ID/organ
Organ distribution Liver ([1]; 6 h): 1.3 ± 0.4 % ID/organ
Organ distribution Spleen ([1]; 6 h): 0.17 ± 0.05 % ID/organ
Organ distribution Stomach ([1]; 6 h): 7 ± 2 % ID/organ
Organ distribution Thyroid ([1]; 6 h): 3.3 ± 0.8 % ID/organ
Organ distribution Tumour ([1]; 6 h): 1.4 ± 0.8 % ID/organ
Organ distribution Intestine ([1]; 24 h): 0.35 ± 0.03 % ID/organ
Organ distribution Liver ([1]; 24 h): 0.19 ± 0.04 % ID/organ
Organ distribution Spleen ([1]; 24 h): 0.01 ± 0.00 % ID/organ
Organ distribution Stomach ([1]; 24 h): 0.4 ± 0.1 % ID/organ
Organ distribution Thyroid ([1]; 24 h): 6.5 ± 2.8 % ID/organ
Organ distribution Tumour ([1]; 24 h): 0.11 ± 0.06 % ID/organ
tumour standardized uptake value (SUVt) ([1]; 1 h): 1.2 ± 0.1
Uptake Lung ([1]; 1 h): 4.8 ± 0.4 % ID/g
uptake BLOOD ([1]; 1 h): 6.9 ± 0.6 % ID/g
uptake BRAIN ([1]; 1 h): 0.36 ± 0.05 % ID/g
uptake HEART ([1]; 1 h): 2.3 ± 0.2 % ID/g
uptake KIDNEY ([1]; 1 h): 4.2 ± 0.6 % ID/g
uptake LIVER ([1]; 1 h): 3.1 ± 0.6 % ID/g
uptake TUMOUR ([1]; 1 h): 3.8 ± 0.2 % ID/g
tumour standardized uptake value (SUVt) ([1]; 6 h): 1.0 ± 0.1
Uptake Lung ([1]; 6 h): 2.6 ± 0.8 % ID/g
uptake BLOOD ([1]; 6 h): 3.6 ± 1.0 % ID/g
uptake BRAIN ([1]; 6 h): 0.14 ± 0.04 % ID/g
uptake HEART ([1]; 6 h): 1.1 ± 0.3 % ID/g
uptake KIDNEY ([1]; 6 h): 2.4 ± 0.7 % ID/g
uptake LIVER ([1]; 6 h): 1.4 ± 0.5 % ID/g
uptake TUMOUR ([1]; 6 h): 2.3 ± 0.5 % ID/g
tumour standardized uptake value (SUVt) ([1]; 24 h): 0.5 ± 0.2
Uptake Lung ([1]; 24 h): 0.2 ± 0.1 % ID/g
uptake BLOOD ([1]; 24 h): 0.25 ± 0.12 % ID/g
uptake BRAIN ([1]; 24 h): 0.02 % ID/g
uptake HEART ([1]; 24 h): 0.10 ± 0.05 % ID/g
uptake KIDNEY ([1]; 24 h): 0.18 ± 0.05 % ID/g
uptake LIVER ([1]; 24 h): 0.20 ± 0.04 % ID/g
uptake TUMOUR ([1]; 24 h): 0.26 ± 0.14 % ID/g
SMILES: CCN(CC)CCNC(=O)c1ccc(I)nc1 [[^123I]14, N-(2-(Diethylamino)ethyl)-6-iodonicotinamide]

Organ distribution Intestine ([1]; 1 h): 15 ± 1 % ID/organ
Organ distribution Liver ([1]; 1 h): 2.0 ± 0.1 % ID/organ
Organ distribution Spleen ([1]; 1 h): 0.54 ± 0.09 % ID/organ
Organ distribution Stomach ([1]; 1 h): 6 ± 1 % ID/organ
Organ distribution Thyroid ([1]; 1 h): 1.3 ± 0.4 % ID/organ
Organ distribution Tumour ([1]; 1 h): 0.64 ± 0.20 % ID/organ
Organ distribution Intestine ([1]; 6 h): 9 ± 1 % ID/organ
Organ distribution Liver ([1]; 6 h): 0.95 ± 0.15 % ID/organ
Organ distribution Spleen ([1]; 6 h): 0.13 ± 0.02 % ID/organ
Organ distribution Stomach ([1]; 6 h): 6 ± 2 % ID/organ
Organ distribution Thyroid ([1]; 6 h): 4.0 ± 0.9 % ID/organ
Organ distribution Tumour ([1]; 6 h): 1.0 ± 0.2 % ID/organ
Organ distribution Intestine ([1]; 24 h): 0.40 ± 0.07 % ID/organ
Organ distribution Liver ([1]; 24 h): 0.14 ± 0.03 % ID/organ
Organ distribution Spleen ([1]; 24 h): 0.02 ± 0.03 % ID/organ
Organ distribution Stomach ([1]; 24 h): 0.17 ± 0.04 % ID/organ
Organ distribution Thyroid ([1]; 24 h): 6.0 ± 1.6 % ID/organ
Organ distribution Tumour ([1]; 24 h): 0.62 ± 0.22 % ID/organ
tumour standardized uptake value (SUVt) ([1]; 1 h): 1.8 ± 0.1
Uptake Lung ([1]; 1 h): 7.5 ± 0.2 % ID/g
uptake BLOOD ([1]; 1 h): 3.1 ± 0.1 % ID/g
uptake BRAIN ([1]; 1 h): 0.42 ± 0.02 % ID/g
uptake HEART ([1]; 1 h): 1.9 ± 0.1 % ID/g
uptake KIDNEY ([1]; 1 h): 3.5 ± 0.2 % ID/g
uptake LIVER ([1]; 1 h): 2.1 ± 0.2 % ID/g
uptake TUMOUR ([1]; 1 h): 5.6 ± 0.3 % ID/g
tumour standardized uptake value (SUVt) ([1]; 6 h): 2.2 ± 0.4
Uptake Lung ([1]; 6 h): 2.2 ± 0.2 % ID/g
uptake BLOOD ([1]; 6 h): 2.4 ± 0.3 % ID/g
uptake BRAIN ([1]; 6 h): 0.16 ± 0.03 % ID/g
uptake HEART ([1]; 6 h): 0.8 ± 0.1 % ID/g
uptake KIDNEY ([1]; 6 h): 1.7 ± 0.3 % ID/g
uptake LIVER ([1]; 6 h): 1.1 ± 0.1 % ID/g
uptake TUMOUR ([1]; 6 h): 5.0 ± 0.7 % ID/g
tumour standardized uptake value (SUVt) ([1]; 24 h): 5.1 ± 1.3
Uptake Lung ([1]; 24 h): 0.15 ± 0.3 % ID/g
uptake BLOOD ([1]; 24 h): 0.13 ± 0.03 % ID/g
uptake BRAIN ([1]; 24 h): 0.02 % ID/g
uptake HEART ([1]; 24 h): 0.09 ± 0.02 % ID/g
uptake KIDNEY ([1]; 24 h): 0.12 ± 0.03 % ID/g
uptake LIVER ([1]; 24 h): 0.15 ± 0.03 % ID/g
uptake TUMOUR ([1]; 24 h): 2.3 ± 0.4 % ID/g
SMILES: CCCN(CCC)CCCCNC(=O)c1cncc(I)c1 [[^123I]17, N-(4-(Dipropylamino)butyl)-5-iodonicotinamide]

Organ distribution Intestine ([1]; 1 h): 58 ± 2 % ID/organ
Organ distribution Liver ([1]; 1 h): 3.6 ± 0.9 % ID/organ
Organ distribution Spleen ([1]; 1 h): 0.05 ± 0.01 % ID/organ
Organ distribution Stomach ([1]; 1 h): 1.7 ± 0.6 % ID/organ
Organ distribution Thyroid ([1]; 1 h): 0.30 ± 0.08 % ID/organ
Organ distribution Tumour ([1]; 1 h): 2.6 ± 1.0 % ID/organ
Organ distribution Intestine ([1]; 6 h): 30 ± 3 % ID/organ
Organ distribution Liver ([1]; 6 h): 1.9 ± 0.4 % ID/organ
Organ distribution Spleen ([1]; 6 h): 0.04 ± 0.02 % ID/organ
Organ distribution Stomach ([1]; 6 h): 4 ± 3 % ID/organ
Organ distribution Thyroid ([1]; 6 h): 1.1 ± 0.4 % ID/organ
Organ distribution Tumour ([1]; 6 h): 1.7 ± 0.5 % ID/organ
Organ distribution Intestine ([1]; 24 h): 0.4 ± 0.1 % ID/organ
Organ distribution Liver ([1]; 24 h): 0.13 ± 0.04 % ID/organ
Organ distribution Spleen ([1]; 24 h): 0.00 ± 0.00 % ID/organ
Organ distribution Stomach ([1]; 24 h): 0.07 ± 0.02 % ID/organ
Organ distribution Thyroid ([1]; 24 h): 1.4 ± 0.6 % ID/organ
Organ distribution Tumour ([1]; 24 h): 0.36 ± 0.07 % ID/organ
tumour standardized uptake value (SUVt) ([1]; 1 h): 1.5 ± 0.4
Uptake Lung ([1]; 1 h): 0.90 ± 0.06 % ID/g
uptake BLOOD ([1]; 1 h): 0.89 ± 0.07 % ID/g
uptake BRAIN ([1]; 1 h): 0.20 ± 0.02 % ID/g
uptake HEART ([1]; 1 h): 0.49 ± 0.03 % ID/g
uptake KIDNEY ([1]; 1 h): 4.2 ± 0.6 % ID/g
uptake LIVER ([1]; 1 h): 3.6 ± 0.9 % ID/g
uptake TUMOUR ([1]; 1 h): 6.0 ± 1.6 % ID/g
tumour standardized uptake value (SUVt) ([1]; 6 h): 1.7 ± 0.5
Uptake Lung ([1]; 6 h): 0.46 ± 0.13 % ID/g
uptake BLOOD ([1]; 6 h): 0.60 ± 0.17 % ID/g
uptake BRAIN ([1]; 6 h): 0.05 ± 0.01 % ID/g
uptake HEART ([1]; 6 h): 0.24 ± 0.08 % ID/g
uptake KIDNEY ([1]; 6 h): 2.4 ± 0.4 % ID/g
uptake LIVER ([1]; 6 h): 2.2 ± 0.6 % ID/g
uptake TUMOUR ([1]; 6 h): 3.9 ± 0.9 % ID/g
tumour standardized uptake value (SUVt) ([1]; 24 h): 9 ± 2
Uptake Lung ([1]; 24 h): 0.03 ± 0.01 % ID/g
uptake BLOOD ([1]; 24 h): 0.04 ± 0.01 % ID/g
uptake BRAIN ([1]; 24 h): 0.001 % ID/g
uptake HEART ([1]; 24 h): 0.02 ± 0.01 % ID/g
uptake KIDNEY ([1]; 24 h): 0.08 ± 0.01 % ID/g
uptake LIVER ([1]; 24 h): 0.12 ± 0.02 % ID/g
uptake TUMOUR ([1]; 24 h): 1.0 ± 0.2 % ID/g
SMILES: O=C(c1cncc(I)c1)N1CCN(Cc2ccccc2)CC1 [[^123I]20, (4-Benzylpiperazin-1-yl)(5-iodopyridin-3-yl)methanone]

SMILES: CCN(CC)CCNC(=O)c1ccc([18F])cc1 [structure A]
reported tumour uptake ([2]; at 2 h): 6.5 % ID/g
Typical Tumour: Blood ratio [2]: 12
